The values below are quoted from earlier work in US20100080856A1, “Method and composition for postoperative wound healing” (priority 2008, published 2010).

The subject of the data set is wound healing in severe burn patients. As to conditions: oral administration, Crit Care Med. 2000, Vol 28, No. 6, 1772-1776.

With `NCCC[C@H](N)C(=O)O.NCCC[C@H](N)C(=O)O.O=C(O)CCC(=O)C(=O)O` [ornithine α-ketoglutarate], the wound healing time result is listed as “shortens the wound healing time”.
